Test system: human sebocytes
Test: Sebocyte assay: 14C-acetate label remaining in cultured sebocytes (sebum suppression)
Assay type: cell-based
Description: Secondary cultures of human sebocytes obtained from an adult […] were grown in 96-well tissue culture plates (Packard) until three days post-confluence. Sebocyte growth medium consisted of Clonetics Keratinocyte Basal Medium (KBM) supplemented with 14 ug/ml bovine pituitary extract, 0.4 ug/ml hydrocortisone, 5 ug/ml insulin, 10 ng/ml epidermal growth factor, 1.2×10^−10 M cholera toxin, 100 units/ml penicillin, and 100 ug/ml streptomycin. All cultures were incubated at 37° C. in the presence of 7.5% CO2. Medium was changed three times per week. On the day of experimentation, the growth medium was removed and the sebocytes washed three times with sterile Dulbecco's Modified Eagle Medium (DMEM; phenol red free). Fresh DMEM (200-microliters per well) was added to each sample (5 replicates) with 5-microliters of test agent (DL-α-Difluoromethylornithine hydrochloride) solubilized in water. Controls consisted of addition of water alone. Each plate was returned to the incubator for 20-hours followed by the addition of ^14C-acetate buffer (5 mM final concentration, 56 mCi/mmol specific activity). Sebocytes were returned to the incubator for 4-hours afterwhich each culture was rinsed 3-times with phosphate buffered saline to remove unbound label. Radioactive label remaining in the sebocytes was determined using a Packard TopCount scintillation counter. Statistical significance (p value) was calculated using student's t-test. Phenol Red, a known sebum suppressive agent, was employed as a positive control. […] The experiment was repeated as above with modifications. On the day of experimentation, the growth medium was removed and the sebocytes washed three times with sterile Dulbecco's Modified Eagle Medium (DMEM; phenol red free). Fresh DMEM was added to each sample (3 replicates) with 5-microliters of test agent (DL-a-Difluoromethylornithine hydrochloride) solubilized in water. Controls consisted of addition of water alone. Each plate was returned to the incubator for 68-hours followed by the addition of ^14C-acetate buffer (5 mM final concentration, 56 mCi/mmol specific activity). Sebocytes were returned to the incubator for 4-hours, followed by rinsing each culture 3-times with phosphate buffered saline to remove unbound label. Radioactive label remaining in the sebocytes was determined using a Packard TopCount scintillation counter. Statistical significance (p value) was calculated using student's t-test.

| Compound | % of Control (radioactive label remaining in the sebocytes) (10 uM, 20-hours incubation then 4-hours 14C-acetate (24-hours), 5 replicates) [%] | % of Control (radioactive label remaining in the sebocytes) (10 uM, 68-hours incubation then 4-hours 14C-acetate, 3 replicates) [%] | % of Control (radioactive label remaining in the sebocytes) (1000 uM, 20-hours incubation then 4-hours 14C-acetate (24-hours), 5 replicates) [%] | % of Control (radioactive label remaining in the sebocytes) (1000 uM, 68-hours incubation then 4-hours 14C-acetate, 3 replicates) [%] | sebum suppressive activity (in words) (after prolonged incubation (68-hours + 4-hours)) | activity at 28.2 µM (Homo sapiens, 28.2 uM, 20-hours incubation then 4-hours 14C-acetate (24-hours), positive control, read-out: % of Control (radioactive label remaining in the sebocytes)) [%] | activity at 282 µM (Homo sapiens, 282 uM, 20-hours incubation then 4-hours 14C-acetate (24-hours), positive control, read-out: % of Control (radioactive label remaining in the sebocytes)) [%] |
| --- | --- | --- | --- | --- | --- | --- | --- |
| Cl.NCCCC(N)(C(=O)O)C(F)F (racemic) [DFMO, DL-α-Difluoromethylornithine hydrochloride] | 95.5 | 59.5 | 88.0 | 41.4 | enhanced sebum suppressive activity |  |  |
| O=S1(=O)OC(c2ccc(O)cc2)(c2ccc(O)cc2)c2ccccc21 [Phenol Red] |  |  |  |  |  | 22.1 | 34.5 |

Reference: patent US20050277699A1, “Method of decreasing sebum production and pore size” (Unilever Home & Personal Care USA, Division Of Conopco, Inc., priority 2004, published 2005)
